Measurements as given in ChEMBL document CHEMBL1152440, “Discovering potent small molecule inhibitors of cyclophilin A using de novo drug design approach” (J Med Chem, 2009).

Target: Peptidyl-prolyl cis-trans isomerase A (Homo sapiens, UniProt P62937)
Sequence (P62937 whole entry): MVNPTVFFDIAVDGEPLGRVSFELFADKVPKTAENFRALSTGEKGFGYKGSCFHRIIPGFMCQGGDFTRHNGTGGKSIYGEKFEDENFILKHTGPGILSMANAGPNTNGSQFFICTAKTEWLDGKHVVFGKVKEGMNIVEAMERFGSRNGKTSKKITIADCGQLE
Description: Inhibition of peptidyl-prolyl isomerase activity of Cyclophilin A

SMILES | IC50
O=C(NCCc1ccccc1)NC(=O)c1c(O)cccc1O | Not Active
Cc1ccccc1C(=O)NC(=O)NC1c2ccccc2-c2ccccc21 | Not Active
O=C(NC(=O)c1ccccc1)NC1c2ccccc2-c2ccccc21 | Not Active

Second part, the compound after the results:

IC50 | SMILES
Not Active | COc1cccc(F)c1C(=O)NC(=O)NC1c2ccccc2-c2ccccc21
Not Active | O=C(NC(=O)c1c(F)cccc1OCc1ccccc1)NC1c2ccccc2-c2ccccc21
